Reference: paper PMC13091788 (NPJ Aging, 2026)
Read-outs that look alike come from different tables or passages of the source.

How the values were obtained:
C2C12 cells = assay: Quantification of mitochondrial DNA (mtDNA/nDNA ratio); format: cell-based, mouse; settings: C2C12, 10 μM
Method: (§1) Murine myoblast C2C12 cells were used for various cellular experiments in this study. Two different sources of C2C12 cells were used depending on the experiment: C2C12 cells obtained from RIKEN BRC (RCB0987) were used for gene expression, mtDNA quantification, and mitochondrial morphology analysis; C2C12 cells from ATCC (CRL-1772) were used for OCR analysis. Cells were cultured in Dulbecco’s Modified Eagle Medium (DMEM; Sigma-Aldrich or Nacalai Tesque), supplemented with 10% FBS and 1% penicillin–streptomycin. Cells were maintained in a humidified incubator at 37°C with 5% CO2.
To generate mMITOL-knockout C2C12 cells, CRISPR-Cas9 vectors were constructed. Single-guide RNAs (sgRNAs) targeting the mouse MITOL gene were designed using the online tool CRISPOR (http://crispor.org). The oligonucleotide pair corresponding to the mMITOL guide RNA (gRNA sequence, 5′-[…]-3′) was annealed and ligated into the PX459 vector (48139, Addgene). C2C12 cells were transfected using Lipofectamine 3000 (Thermo Fisher Scientific), and knockout clones were selected by serial dilution.
To assess mitochondrial DNA (mtDNA) content, the mtDNA/nuclear DNA (nDNA) ratio was determined by extracting DNA from C2C12 cells using the NucleoSpin Tissue Kit (Takara Bio), followed by real-time quantitative PCR analysis with specific primer sets for mtDNA (16S rRNA or ND1) and nDNA (Hexokinase 2; HK2) (Supplementary Table 2). Real-time quantitative PCR was performed using TB Green Premix Ex Taq II (Takara Bio) and a Thermal Cycler Dice Real-Time System (Takara Bio). The analysis of mtDNA/nDNA ratios was conducted using the ΔΔCt method as previously described.

PAMPA assay = format: in vitro ADME; settings: 37 °C, 4 h
Method: To determine the passive membrane diffusion rates, Corning Gentest Pre-coated PAMPA Plate System was used. The acceptor plate was prepared by adding 200 μL of 0.1 M phosphate buffer (pH 4.5–8.6) supplemented with 5% DMSO to each well, and then 300 μL of 30 μM compounds in 0.1 M phosphate buffer (pH 4.5–8.6) with 5% DMSO were added to the donor wells. The acceptor plate was then placed on top of the donor plate and incubated at 37 °C for 4 h without agitation. After the incubation, the plates were separated and the solutions from each well of both the acceptor plate and the donor plate were transferred to 96-well plates and mixed with acetonitrile. The final concentrations of compounds in both donor and acceptor wells, as well as the concentrations of the initial donor solutions, were analyzed using liquid chromatography-tandem mass spectrometry (LC-MS/MS). The permeability of the compounds was calculated as described in a previous study. […] Two technical replicates were performed.

[1] = Unbound fraction in human plasma (equilibrium dialysis); format: in vitro ADME; settings: pH 7.4, equilibrium dialysis 6 h, 37 °C, read-out: Plasma protein binding (fraction unbound) human (pH7.4)
Method: (§2) An equilibrium dialysis apparatus was used to determine the unbound fraction for each compound in human or mouse plasma. High Throughput Dialysis Model HTD96b and Dialysis Membrane Strips MWCO 12–14 kDa (HTDialysis) were used. Plasma was spiked with the test compound (1 μM), and 150 μL aliquots were loaded into the apparatus and dialyzed versus 150 μL of 0.1 M phosphate buffer (pH 7.4) at 37 °C for 6 h by rotation at 80 rpm. The unbound fraction was calculated as the ratio of receiver side (buffer) to donor side (plasma) concentrations. Two technical replicates were performed.

C2C12 myoblasts = assay: Oxygen consumption analysis of C2C12 cells (Seahorse); format: cell-based, mouse; settings: C2C12, 30 μM, 24 h, vs solvent control
Method: as §1
To generate mMITOL-knockout C2C12 cells, CRISPR-Cas9 vectors were constructed. […]
The oxygen consumption rate (OCR) of C2C12 myoblasts and H9c2 cardiomyocytes were measured using a Seahorse XFe24 Analyzer and the Seahorse XF Cell Mito Stress Test Kit (Agilent Technologies), as well as a Seahorse XF HS Mini Analyzer and the Seahorse XFp Cell Mito Stress Test Kit (Agilent Technologies), according to the manufacturer’s protocol. […] The assay was performed at 37 °C, and OCR was measured at baseline and after sequential injections of the following compounds: oligomycin (Oligo; 1 μM), FCCP (0.5 μM), and a mixture of rotenone and antimycin A (Rot/Anti; 0.5 μM each). […] Non-mitochondrial respiration was defined as the OCR measured after the injection of rotenone and antimycin A.

[2] = Hepatic microsomal stability assay, mouse; format: in vitro ADME; settings: CLint, 1 μM, 0.2 mg/mL microsomes, NADPH, 30 min
Method: Disappearance of the parent compound over time was measured by using the amount of drug at time zero as a reference. After 5 min of preincubation, 1 mM NADPH (final concentration; the same applies to the following) was added to a mixture containing 1 μM of the compound, 0.2 mg/mL of human or mouse liver microsomes (Sekisui XenoTech), 1 mM EDTA and 0.1 M phosphate buffer (pH 7.4). The mixture solution was incubated at 37 °C for 30 min with rotation at 60 rpm. An aliquot of 50 μL of the incubation mixture was added to 250 μL of chilled acetonitrile/internal standard (IS, methyltestosterone). After centrifugation at 3150 × g for 15 min at 4 °C, the supernatants were analyzed by LC-MS/MS. Hepatic microsomal stability (mL/min/kg, CLint) was calculated according to a previous report, using 48.8 (human) or 45.4 (mouse) mg MS protein/g liver and 25.7 (human) or 87.5 (mouse) g liver/kg body weight as scaling factors. Two technical replicates were performed.

[3] = Unbound fraction in mouse plasma (equilibrium dialysis); format: in vitro ADME; settings: pH 7.4, equilibrium dialysis 6 h, 37 °C, read-out: Plasma protein binding (fraction unbound) mouse (pH7.4)
Method: as §2

[4] = donor/acceptor pH 6.4/7.4, 30 μM, read-out: Membrane permeability pH6.4/7.4
[5] = donor/acceptor pH 7.4/7.4, 30 μM, read-out: Membrane permeability pH7.4/7.4

Compound	mitochondrial abundance (mtDNA 16S rRNA or ND1 / nuclear HK2) (C2C12 cells)	Papp at 4 h, 30 μM (PAMPA assay; donor/acceptor pH 4.5/4.5, 30 μM, read-out: Membrane permeability pH4.5/4.5)	Papp at 4 h, 30 μM (PAMPA assay; [4])	Papp at 4 h, 30 μM (PAMPA assay; [5])	fraction unbound at 6 h, 1 μM [1]	OCR: basal respiration, ATP synthesis-linked respiration and maximal respiration (C2C12 myoblasts)	Liver microsomal metabolic stability mouse (pH7.4) [2]	fraction unbound at 6 h, 1 μM [3]	Papp at 4 h, 30 μM (PAMPA assay; donor/acceptor pH 8.6/8.6, 30 μM, read-out: Membrane permeability pH8.6/8.6)
COc1ccc2cc3[n+](cc2c1O)CCc1cc2c(cc1-3)OCO2 [AcA-BRB, berberrubine acetic acid adduct]	significantly increased	0.22 ×10⁻⁶ cm/s	1.87 ×10⁻⁶ cm/s	1.8 ×10⁻⁶ cm/s	0.374	significantly increased	1794 mL/min/kg	0.203	
COc1ccc2cc3n(cc-2c1=O)CCc1cc2c(cc1-3)OCO2 [Q-BRB, quinoid-type berberrubine]	significantly increased		1.63 ×10⁻⁶ cm/s	2.9 ×10⁻⁶ cm/s	0.359	significantly increased	1839 mL/min/kg	0.162	2.6 ×10⁻⁶ cm/s
